In the NIST ThermoML archive (doi:10.1016/j.jct.2019.04.009):
± gives the expanded uncertainty stated by the source.

Test: mn = molality of the nth substance listed, in mol/kg
Conditions: Liquid, Vibrating tube method

NC(N)=O [urea] + O
298.15 K, 100 kPa
Conditions | mass density [kg/m3]
m1 = 0.1001 | 998.63 ± 0.11
m1 = 0.1999 | 1000.2 ± 0.11
m1 = 0.3 | 1001.75 ± 0.11
m1 = 0.4 | 1003.29 ± 0.11
m1 = 0.5001 | 1004.81 ± 0.11

NC(N)=O [urea] + OCCO
mass density [kg/m3], 99.6 kPa
Conditions | 288.15 K | 298.15 K | 308.15 K | 318.15 K | 328.15 K
m1 = 0.0551 | 1117.63 ± 0.12 | 1110.69 ± 0.12 | 1103.68 ± 0.12 | 1096.6 ± 0.12 | 1089.43 ± 0.12
m1 = 0.1487 | 1118.67 ± 0.12 | 1111.72 ± 0.12 | 1104.7 ± 0.12 | 1097.61 ± 0.12 | 1090.44 ± 0.12
m1 = 0.3264 | 1120.61 ± 0.13 | 1113.63 ± 0.12 | 1106.59 ± 0.12 | 1099.51 ± 0.12 | 1092.34 ± 0.12
m1 = 0.446 | 1121.88 ± 0.13 | 1114.89 ± 0.12 | 1107.84 ± 0.12 | 1100.77 ± 0.12 | 1093.59 ± 0.12
m1 = 0.495 | 1122.39 ± 0.13 | 1115.41 ± 0.12 | 1108.35 ± 0.12 | 1101.28 ± 0.12 | 1094.1 ± 0.12
m1 = 0.6616 | 1124.11 ± 0.13 | 1117.13 ± 0.12 | 1110.06 ± 0.12 | 1103 ± 0.12 | 1095.82 ± 0.12
m1 = 0.8791 | 1126.28 ± 0.13 | 1119.33 ± 0.12 | 1112.26 ± 0.12 | 1105.19 ± 0.12 | 1098.01 ± 0.12
m1 = 1.072 | 1128.14 ± 0.13 | 1121.24 ± 0.13 | 1114.15 ± 0.12 | 1107.09 ± 0.12 | 1099.92 ± 0.12
m1 = 1.208 | 1129.41 ± 0.13 | 1122.55 ± 0.13 | 1115.46 ± 0.12 | 1108.4 ± 0.12 | 1101.23 ± 0.12
m1 = 1.357 | 1130.76 ± 0.13 | 1123.96 ± 0.13 | 1116.88 ± 0.12 | 1109.83 ± 0.12 | 1102.66 ± 0.12
m1 = 1.523 | 1132.23 ± 0.13 | 1125.51 ± 0.13 | 1118.42 ± 0.12 | 1111.4 ± 0.12 | 1104.22 ± 0.12
